Data published in ChEMBL document CHEMBL3046602, “Chiral 1,5-disubstituted 1,3,5-hexahydrotriazine-2-N-nitroimine analogues as novel potent neonicotinoids: Synthesis, insecticidal evaluation and molecular docking studies” (2011).

Legend:
Type in all cases: functional
[1] = tested on: Aphis medicaginis; test: Insecticidal activity against Aphis medicaginis assessed as insect mortality at 500 mg/L measured after 72 hr post compound treatment
[2] = tested on: Aphis medicaginis; test: Insecticidal activity against Aphis medicaginis assessed as insect mortality at 10 mg/L measured after 72 hr post compound treatment
[3] = tested on: Aphis medicaginis; test: Insecticidal activity against Aphis medicaginis assessed as insect mortality at 100 mg/L measured after 72 hr post compound treatment

Work on `CCOC(=O)CN1CN/C(=N\[N+](=O)[O-])N(Cc2cnc(Cl)s2)C1` yielded a mortality at 500 µg/mL [1] of no less than 80%, a mortality at 10 µg/mL [2] of no less than 60% and a mortality at 100 µg/mL [3] of no less than 70%.

`CCOC(=O)CC(CC(=O)OCC)N1CN/C(=N\[N+](=O)[O-])N(Cc2cnc(Cl)s2)C1` showed a mortality at 500 µg/mL [1] of no less than 90%, a mortality at 10 µg/mL [2] of no less than 60% and a mortality at 100 µg/mL [3] of no less than 70%.

Work on `CN1COCN(Cc2cnc(Cl)s2)/C1=N\[N+](=O)[O-]` [THIAMETHOXAM] yielded a mortality at 500 µg/mL [1] of 100%, a mortality at 10 µg/mL [2] of 100% and a mortality at 100 µg/mL [3] of 100%.

`CCOC(=O)CCCN1CN/C(=N\[N+](=O)[O-])N(Cc2ccc(Cl)nc2)C1` was tested, and the mortality at 500 µg/mL [1] was 100%, the mortality at 10 µg/mL [2] was no less than 80% and the mortality at 100 µg/mL [3] was 100%.

`CCOC(=O)[C@H](C(C)C)N1CN/C(=N\[N+](=O)[O-])N(Cc2cnc(Cl)s2)C1` showed a mortality at 500 µg/mL [1] of no less than 80%, a mortality at 10 µg/mL [2] of no less than 50% and a mortality at 100 µg/mL [3] of no less than 60%.

`CCOC(=O)[C@H](C(C)C)N1CN/C(=N\[N+](=O)[O-])N(Cc2ccc(Cl)nc2)C1` gave a mortality at 500 µg/mL [1] of no less than 80%, a mortality at 10 µg/mL [2] of no less than 60% and a mortality at 100 µg/mL [3] of no less than 70%.

For `CCOC(=O)[C@@H](c1ccc(Cl)cc1)N1CN/C(=N\[N+](=O)[O-])N(Cc2ccc(Cl)nc2)C1`, the mortality at 500 µg/mL [1] was no less than 70%, the mortality at 10 µg/mL [2] was no less than 50% and the mortality at 100 µg/mL [3] was no less than 60%.

`CCOC(=O)CC(CC(=O)OCC)N1CN/C(=N\[N+](=O)[O-])N(Cc2ccc(Cl)nc2)C1` was tested, and the mortality at 500 µg/mL [1] was 100%, the mortality at 10 µg/mL [2] was no less than 60% and the mortality at 100 µg/mL [3] was no less than 70%.

Molecule `CCOC(=O)[C@H](C)N1CN/C(=N\[N+](=O)[O-])N(Cc2ccc(Cl)nc2)C1` has a mortality at 500 µg/mL [1] of no less than 70%, a mortality at 10 µg/mL [2] of no less than 50% and a mortality at 100 µg/mL [3] of no less than 60%.

For `CCOC(=O)[C@H](CC(C)C)N1CN/C(=N\[N+](=O)[O-])N(Cc2cnc(Cl)s2)C1`, the mortality at 500 µg/mL [1] was 100%, the mortality at 10 µg/mL [2] was no less than 80% and the mortality at 100 µg/mL [3] was 100%.

In the case of `CCOC(=O)[C@@H](c1ccc(Cl)cc1)N1CN/C(=N\[N+](=O)[O-])N(Cc2cnc(Cl)s2)C1`, the mortality at 500 µg/mL [1] is reported as 100%, the mortality at 10 µg/mL [2] is reported as no less than 90% and the mortality at 100 µg/mL [3] is reported as 100%.

`CCOC(=O)[C@H](Cc1ccccc1)N1CN/C(=N\[N+](=O)[O-])N(Cc2cnc(Cl)s2)C1` gave a mortality at 500 µg/mL [1] of no less than 70% and a mortality at 100 µg/mL [3] of no less than 60%.

With `O=[N+]([O-])/N=C1\NCCN1Cc1ccc(Cl)nc1` [IMIDACLOPRID] the mortality at 500 µg/mL [1] was 100%, the mortality at 10 µg/mL [2] was 100% and the mortality at 100 µg/mL [3] was 100%.

For `CCOC(=O)[C@H]([C@@H](C)CC)N1CN/C(=N\[N+](=O)[O-])N(Cc2ccc(Cl)nc2)C1`, the mortality at 500 µg/mL [1] was no less than 80%, the mortality at 10 µg/mL [2] was no less than 60% and the mortality at 100 µg/mL [3] was no less than 80%.

`CCOC(=O)C[C@@H](C(=O)OCC)N1CN/C(=N\[N+](=O)[O-])N(Cc2ccc(Cl)nc2)C1` showed a mortality at 500 µg/mL [1] of no less than 90%, a mortality at 10 µg/mL [2] of no less than 60% and a mortality at 100 µg/mL [3] of no less than 70%.

In the case of `CCOC(=O)CCCN1CN/C(=N\[N+](=O)[O-])N(Cc2cnc(Cl)s2)C1`, the mortality at 500 µg/mL [1] is reported as 100%, the mortality at 10 µg/mL [2] is reported as no less than 80% and the mortality at 100 µg/mL [3] is reported as 100%.

In the case of `CCOC(=O)[C@H](C)N1CN/C(=N\[N+](=O)[O-])N(Cc2cnc(Cl)s2)C1`, the mortality at 500 µg/mL [1] is reported as no less than 80%, the mortality at 10 µg/mL [2] is reported as no less than 60% and the mortality at 100 µg/mL [3] is reported as no less than 60%.

For `CCOC(=O)C[C@@H](C(=O)OCC)N1CN/C(=N\[N+](=O)[O-])N(Cc2cnc(Cl)s2)C1`, the mortality at 500 µg/mL [1] was no less than 90%, the mortality at 10 µg/mL [2] was no less than 70% and the mortality at 100 µg/mL [3] was no less than 80%.

Molecule `CCOC(=O)[C@H]([C@@H](C)CC)N1CN/C(=N\[N+](=O)[O-])N(Cc2cnc(Cl)s2)C1` has a mortality at 500 µg/mL [1] of no less than 80%, a mortality at 10 µg/mL [2] of no less than 50% and a mortality at 100 µg/mL [3] of no less than 60%.

`CCOC(=O)CCN1CN/C(=N\[N+](=O)[O-])N(Cc2ccc(Cl)nc2)C1` was tested, and the mortality at 500 µg/mL [1] was 100%, the mortality at 10 µg/mL [2] was no less than 70% and the mortality at 100 µg/mL [3] was no less than 80%.

For `CCOC(=O)[C@H](Cc1ccccc1)N1CN/C(=N\[N+](=O)[O-])N(Cc2ccc(Cl)nc2)C1`, the mortality at 500 µg/mL [1] was no less than 70%, the mortality at 10 µg/mL [2] was no less than 50% and the mortality at 100 µg/mL [3] was no less than 60%.

For `CCOC(=O)CCN1CN/C(=N\[N+](=O)[O-])N(Cc2cnc(Cl)s2)C1`, the mortality at 500 µg/mL [1] was 100%, the mortality at 10 µg/mL [2] was no less than 60% and the mortality at 100 µg/mL [3] was no less than 70%.

In the case of `CCOC(=O)CN1CN/C(=N\[N+](=O)[O-])N(Cc2ccc(Cl)nc2)C1`, the mortality at 500 µg/mL [1] is reported as no less than 80%, the mortality at 10 µg/mL [2] is reported as no less than 60% and the mortality at 100 µg/mL [3] is reported as no less than 70%.

Work on `CCOC(=O)[C@H](CC(C)C)N1CN/C(=N\[N+](=O)[O-])N(Cc2ccc(Cl)nc2)C1` yielded a mortality at 500 µg/mL [1] of 100%, a mortality at 10 µg/mL [2] of no less than 70% and a mortality at 100 µg/mL [3] of no less than 80%.

With `CCOC(=O)[C@H](CCSC)N1CN/C(=N\[N+](=O)[O-])N(Cc2ccc(Cl)nc2)C1` the mortality at 500 µg/mL [1] was no less than 70% and the mortality at 100 µg/mL [3] was no less than 60%.

Molecule `CCOC(=O)[C@H](CCSC)N1CN/C(=N\[N+](=O)[O-])N(Cc2cnc(Cl)s2)C1` has a mortality at 500 µg/mL [1] of no less than 90%, a mortality at 10 µg/mL [2] of no less than 50% and a mortality at 100 µg/mL [3] of no less than 60%.
